Experimental data: PubChem BioAssay (NCI)
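Results reflect a 48-hour exposure of cells in 96-well plates to compound at five concentrations. GI50 is the concentration that inhibits growth by half. TGI is the concentration that stops growth completely.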

Tests used:
Assay in all cases: NCI tumour cell line growth inhibition, 48 h
MALME-3M melanoma = system: MALME-3M melanoma
HCC-2998 colon = system: HCC-2998 colon
COLO 205 colon = system: COLO 205 colon
ACHN renal = system: ACHN renal
SF-539 CNS = system: SF-539 CNS
HS 578T breast = system: HS 578T breast
SK-OV-3 ovarian = system: SK-OV-3 ovarian
TK-10 renal = system: TK-10 renal
OVCAR-4 ovarian = system: OVCAR-4 ovarian
K-562 leukemia = system: K-562 leukemia

SMILES | GI50 (MALME-3M melanoma) | TGI (MALME-3M melanoma) | GI50 (HCC-2998 colon) | TGI (HCC-2998 colon) | GI50 (COLO 205 colon) | TGI (COLO 205 colon) | GI50 (ACHN renal) | GI50 (SF-539 CNS) | TGI (SF-539 CNS) | GI50 (HS 578T breast) | TGI (HS 578T breast) | GI50 (SK-OV-3 ovarian) | TGI (SK-OV-3 ovarian) | GI50 (TK-10 renal) | TGI (TK-10 renal) | GI50 (OVCAR-4 ovarian) | TGI (OVCAR-4 ovarian) | GI50 (K-562 leukemia) | TGI (K-562 leukemia) | TGI (ACHN renal)
O=[N+]([O-])c1cccc(-c2cc(-c3cc(Br)ccc3O)[nH]n2)c1 | 2.21 µM | 5.52 µM | 2.96 µM | 12.1 µM | 2.23 µM | 5.16 µM | 3.23 µM | 2.89 µM | 11 µM | 2.15 µM | 9.29 µM | 2.37 µM | 7.15 µM | 2.26 µM | 6.71 µM | 3.45 µM | 17.3 µM | 1.66 µM | 4.57 µM | 
COc1ccc(-c2csc3c2-n2cccc2C3=O)cc1O | 35.3 µM | > 100 µM | 0.454 µM | 8.71 µM | 9.77 µM | 26.3 µM | < 0.0489 µM | 0.0226 µM | > 100 µM | < 0.0165 µM | > 100 µM | 0.0452 µM | 18.1 µM | 17.6 µM | 98.7 µM | 0.579 µM | > 100 µM | < 0.01 µM | > 100 µM | > 100 µM
O=[N+]([O-])/C=C/c1ccc([N+](=O)[O-])cc1 | 4.23 µM | 15.1 µM | 1.75 µM | 3.23 µM | 1.97 µM | 4.22 µM | 2.08 µM | 2.46 µM | 4.89 µM | 2.64 µM | 9.87 µM | 4.15 µM | 14.4 µM | 2.7 µM | 6.19 µM | 3.65 µM | 22.3 µM | 2.4 µM | 12.4 µM | 4.16 µM
N#C[C@H]1Nc2ccccc2[C@@H](O)C1O (stereo not given in full) |  | > 100 µM |  | > 100 µM |  | > 100 µM |  |  | > 100 µM |  | > 100 µM |  | > 100 µM |  | > 100 µM |  | > 100 µM |  | > 100 µM | > 100 µM
O=C(/C=C\c1ccc2ccccc2n1)c1cc(Cl)ccc1O | 8.64 µM | 25.8 µM | 14.6 µM | 28.3 µM | 5.74 µM | 18.4 µM | 8.32 µM | 7.15 µM | 23.2 µM | 16.2 µM | 62.6 µM | 61.4 µM | > 100 µM | 7.88 µM | 85.3 µM | 5.25 µM | 24.6 µM | 3.46 µM | 23.2 µM | 21.4 µM
COc1ccc2c(c1)[C@@]1(C)CCC3c4ccc(O)cc4CCC3C1C2 (stereo not given in full) | 18.7 µM | 34.8 µM | 18 µM | 32.3 µM | 14.7 µM | 31 µM | 15.9 µM | 20.3 µM | 38.9 µM | 19.4 µM | 39.3 µM | 15.7 µM | 29.6 µM | 14 µM | 29 µM | 13.7 µM | 28.4 µM | 14.8 µM | 48.4 µM | 29.8 µM
COc1cc(-c2n/c(=C\c3c(O)[nH]c4ccccc34)cc3c2=Nc2ccccc2-3)cc(OC)c1OC | 0.448 µM | > 100 µM | 2.32 µM | 6.48 µM | 1.55 µM | 6.7 µM | 1.11 µM | 0.783 µM | 7.83 µM | 0.418 µM | 68 µM | 4.58 µM | > 100 µM | 2.18 µM | 25 µM | 0.506 µM | > 100 µM | 0.586 µM | > 100 µM | > 100 µM
COc1ccc(-c2cc(-c3nnc(SCC(=O)Nc4ccc(C(C)=O)cc4)o3)c3ccccc3n2)cc1 | 10.6 µM | 91.8 µM | > 100 µM | > 100 µM | > 100 µM | > 100 µM | 5.64 µM | 33.9 µM | > 100 µM | 14.2 µM | 92.3 µM | 27 µM | 91.6 µM | 28.7 µM | 78.6 µM |  |  | > 100 µM | > 100 µM | 31.7 µM
Cc1cc(C)c2c(N)c3cccc(C)c3nc2n1 | 1.93 µM | 4.38 µM | 1.94 µM | 4.92 µM | 0.702 µM | 2.17 µM | 0.852 µM | 1.61 µM | 5.01 µM | 3.25 µM | 25.1 µM | 2.11 µM | 9.36 µM | 1.83 µM | 7.05 µM | 2.29 µM | 8.1 µM | 2.36 µM | 8.71 µM | 5.08 µM
C=C(C)[C@@H]1CC[C@]2(C(=O)NCCNCCNCCN)CC[C@]3(C)[C@H](CC[C@@H]4[C@@]5(C)CCC(=O)C(C)(C)[C@@H]5CC[C@]43C)[C@@H]12 | 7.4 µM | 16.5 µM | 7.16 µM | 14.8 µM | 8.74 µM | 19 µM | 13.8 µM | 7.53 µM | 14.6 µM | 8.3 µM | 19.2 µM | 10.6 µM | 25.9 µM | 10.1 µM | 19.7 µM | 7.39 µM | 15.3 µM | 8.2 µM | 21.8 µM | > 50 µM
COC(=O)[C@]12CC=C3O[C@@H]4OC5(CCCCC5)O[C@@H]4[C@H]3C1C(=O)C=CC2=O (stereo not given in full) |  | 34.2 µM |  | 31.4 µM |  | 30.4 µM |  |  | 34.8 µM |  | 78.4 µM |  | 48.7 µM |  | 31.4 µM |  | 31.4 µM |  | 65 µM | 32.6 µM
COC(=O)[C@@H]1CCCN1C(=O)[C@H]1CCCN1C(=O)[C@@H](Cc1c[nH]c2ccccc12)NC(=S)Nc1cc(C(F)(F)F)cc(C(F)(F)F)c1 | 2.65 µM | 7.24 µM | 2.05 µM | 4.3 µM | 2.06 µM | 3.97 µM | 2.97 µM | 3.83 µM | 14.3 µM | 2.94 µM | 13.4 µM | 6.56 µM | 18.9 µM | 2.58 µM | 6.62 µM | 2.29 µM | 7.55 µM | 3.73 µM | 12.2 µM | 11 µM
COc1ccc(-n2c3c(c4c(CN(C)C)c(O)c(C)cc42)CCc2ccccc2C3=O)cc1 | 25.4 µM | > 100 µM | 23.4 µM | 67.8 µM | > 100 µM | > 100 µM | 47 µM | 26.9 µM | > 100 µM | 48.2 µM | > 100 µM | > 100 µM | > 100 µM | 47.2 µM | > 100 µM |  |  | 18.7 µM | 44.4 µM | > 100 µM
